Patent US20230357373A1, “METHODS AND COMPOSITIONS FOR […] TREATING FIBROSIS” (Mie University, priority 2019, published 2023)

Experiments:
[1] = test system: normal human bronchial epithelial (NHBE) cells; assay: Apoptosis assay by flow cytometry in normal human bronchial epithelial cells; format: cell-based; conditions: 10 μM, 48 h
Procedure: More specifically, FIGS. 19A-19B show a flow cytometry analysis of normal human bronchial epithelial (NHBE) cells after culturing for 48 h in DMEM medium containing 10 μM of corisin or of its scrambled sequence. Each treatment group had n=4. Bars indicate the means ±S.D. Statistical analysis by ANOVA with Tukey's test. *p<0.001.
(§1) The A549 and NHBE cells were cultured in DMEM supplemented with 10% fetal calf serum, 0.03% (w/v) L-glutamine, 100 IU/ml penicillin and 100 μg/ml streptomycin in a humidified, 5% CO2 atmosphere at 37° C. We used A549 cell lines in most experiments because they have higher potential growth and mimic the phenotype of alveolar type II cells more than primary NHBE cells (NPL82, NPL83); and in addition, these primary cells usually easily change phenotype or become senescent after a short period of culture.
A549 and NBHE cells (4×10^5 cells/well) were seeded into 12-well plates, cultured to sub-confluency, washed and then cultured in serum free medium containing 10% of each bacterial supernatant for 48 h. Non-inoculated hypersaline medium was used as control. The cells were analyzed for apoptosis by flow cytometry (FACScan, BD Biosciences, Oxford, UK) after staining with fluorescein-labelled annexin V and propidium iodide (FITC Annexin V Apoptosis Detection Kit with PI, Biolegend, San Diego, CA). […]

[2] = test system: A549 alveolar epithelial cells; assay: Apoptosis assay by flow cytometry (annexin V / propidium iodide) in A549 cells; format: cell-based, human; conditions: for apoptosis of alveolar epithelial cells: 10 μM peptide, 24 h
Procedure: as §1
(§2) A549 and NBHE cells (4×10^5 cells/well) were seeded into 12-well plates, cultured to sub-confluency, washed and then cultured in serum free medium containing 10% of each bacterial supernatant for 48 h. Non-inoculated hypersaline medium was used as control. The cells were analyzed for apoptosis by flow cytometry (FACScan, BD Biosciences, Oxford, UK) after staining with fluorescein-labelled annexin V and propidium iodide (FITC Annexin V Apoptosis Detection Kit with PI, Biolegend, San Diego, CA). Flow cytometry gating strategy used in the experiments is described in FIGS. 34A-34C. Under physiological conditions, phosphatidylcholine is exposed externally while phosphatidylserine (PS) is located on the inner surface of the lipid bilayer of cellular membranes. See NPL84. During apoptosis, PS is translocated from the cytoplasmic face of the plasma membrane to the cell surface. Id.

TGFβ1 TG mice = assay: Intratracheal instillation of corisin in TGFβ1 TG mice with lung fibrosis; format: in vivo, mouse; conditions: intratracheal once daily for two days, euthanasia day 3, vs control mice
Text: To investigate whether corisin can exacerbate the lung fibrotic disease in vivo, we separated TGFβ1 TG mice into three groups with matched level of lung fibrosis (see FIGS. 25A and 25B) and treated them with saline, scrambled peptide or corisin by the intratracheal route once daily for two days before euthanasia on day 3 (see FIG. 6A).
Under profound anesthesia, we collected bronchoalveolar lavage fluid for biochemical analysis and cell counting. Briefly, bronchoalveolar lavage fluid was performed by cannulating the trachea with a 20-gauge needle and infusing saline solutions into the lungs in accordance with NPL68. The samples were centrifuged and the supernatants were stored at −80° C. until analysis. The cell pellets were re-suspended in physiological saline solution and the number of cells was counted. A nucleocounter from ChemoMetec (Allerød, Denmark) was used for cell counting and the cells were stained with May-Grünwald-Giemsa (Merck, Darmstadt, Germany) to count differential cells. Mice were sacrificed by anesthesia overdose, and the lungs were resected to fix in formalin, embedded in paraffin and prepared for hematoxylin and eosin staining. The severity of lung fibrosis was quantitated based on the Ashcroft criteria. See NPL67. The level of TGFβ1 was measured using a commercial enzyme immunoassay kit from BD Biosciences Pharmingen (San Diego, CA).
Three groups of TGFβ1 TG mice (each n=5 or n=4) with matched grade (level) of lung fibrosis as assessed by CT score underwent intratracheal instillation of corisin or scrambled peptide or 0.9% NaCl solution on days 1 and 2 and sacrificed on day 3 to evaluate changes in lung inflammation and fibrosis. WT mice (n=3) without lung fibrosis treated with 0.9% NaCl solution were used as controls.
Staining of terminal deoxynucleotidyl transferase dUTP Nick-End Labeling (TUNEL) was performed at the Biopathology Institute Corporation (Kunisaki, Oita, Japan) by using Alexa Fluor 594 goat anti-rabbit IgG and slow-fade gold-antifade reagent with 4′,6-diamidino-2-phenylindole (DAPI) or by using ApopTag terminal deoxynucleotidyl transferase (Merck Millipore, Burlington, MA), anti-digoxigenin-peroxidase and 3,3′-diaminobenzidine. Quantification of apoptotic areas was performed using the WinROOF software (Mitani Corporation, Tokyo, Japan) and the values were averaged for each individual mouse.

[3] = test system: human umbilical vein endothelial cells; assay: Apoptosis flow cytometry in vascular endothelial cells; format: cell-based; conditions: 10 μg/ml, 48 h
Procedure: FIGS. 21C and 21D show a flow cytometry analysis of human umbilical vein endothelial cells after culturing for 48 h in DMEM medium containing 10 μg/ml corisin. Each group had n=4.
as §2

[4] = test system: normal human bronchial epithelial (NHBE) cells; assay: Western blotting of cleaved caspase-3 and Akt in NHBE cell lysates; format: cell-based
Procedure: Each treatment group had n=4. A representative blot of each treatment group is shown.
FIGS. 19D and 19E show the intensity of the Western blot membrane bands as quantified by densitometry using Image? software. Each treatment group had n=4. Bars indicate the means ±S.D. Statistical analysis was performed by one-tailed Mann-Whitney U test. *p<0.05.
The cells for Western blot analysis were washed twice with ice-cold phosphate-buffered saline and then lysed in radioimmunoprecipitation assay (RIPA) buffer (10 mM Tris-Cl (pH 8.0), 1 mM EDTA, 1% Triton X-100, 0.1% sodium deoxycholate, 0.1% SDS, 140 mM NaCl, 1 mM phenylmethylsulfonyl fluoride) supplemented with protease/phosphatase inhibitors (1 mM orthovandate, 50 mM β-glycerophosphate, 10 mM sodium pyrophosphate, 5 μg/mL leupeptin, 2 μg/mL aprotinin, 5 mM sodium fluoride). The suspensions were centrifuged (17,000 x g, 10 min at 4° C.), and the protein content was determined using Pierce BCA protein assay kit (Thermo Fisher Scientific Incorporation, Waltham, MA). Equal amounts of cellular lysate protein were mixed with Laemmli sample buffer and separated by SDS-PAGE. […] The intensity of the bands was quantified by densitometry using the public domain NIH imageJ program (Wayne Rasband, NIH, Research Service Branch).

[5] = test system: A549 alveolar epithelial cells; assay: Transmission electron microscopy of apoptotic cells; format: cell-based, human; conditions: 5 μM, 16 h
Procedure: A549 cells (10×10^4 cells/ml) were plated on a collagen-coated 8-well chamber slides (BD Bioscience, San Jose, CA) and cultured until semi-confluent. Cells were serum-starved for 6 h and stimulated with the pro-apoptotic peptide (5 μM) for 16 h. Cells were fixed with 2% fresh formaldehyde and 2.5% glutaraldehyde in 0.1 M sodium cacodylate buffer (pH 7.4) for 2 h at room temperature. After washing with 0.1 M cacodylate buffer (pH 7.4), they were postfixed with 1% OsO4 in the same buffer for 2 h at 4° C. The samples were rinsed with distilled water, stained with 1% aqueous uranyl acetate for 2 h or overnight at room temperature, dehydrated with ethanol and propylene oxide, and embedded in epon (Epon 812 resin, Nakalai). After removal of the cells from the glass, ultra-thin sections (94 nm) were cut, stained with uranyl acetate and Reynolds's lead citrate, and viewed with a transmission electron microscope (JEM-1010, JEOL, Tokyo, Japan).

human Jurkat T cells = assay: Apoptosis flow cytometry in T cells; format: cell-based; conditions: 10 μg/ml, 48 h
Procedure: FIGS. 21E and 21F show a flow cytometry analysis of human Jurkat T cells after culturing for 48 h in DMEM medium containing 10 μg/ml corisin. Each treatment group had n=4. Bars indicate the means ±S.D. Statistical analysis was performed by ANOVA with Tukey's test.
as §2

HFL1 lung fibroblasts = assay: Apoptosis flow cytometry in lung fibroblasts; format: cell-based; conditions: 10 μg/ml, 48 h
Procedure: FIGS. 21A and 21B show a flow cytometry analysis of HFL1 lung fibroblasts after culturing for 48 h in DMEM medium containing 10 μg/ml corisin. Each had with n=4.
as §2

NRVYNGPAASPVSEGMPIN (listed as Staphylococcus epidermidis) [scrambled peptide, reference compound]
apoptosis of normal human bronchial epithelial cells [1]: did not
apoptosis of alveolar epithelial cells [2]: not

IVMPESSGNPNAVNPAGYR (listed as Staphylococcus cohnii) [corisin, peptide of 19 amino acid residues, segment of transglycosylase 351 IsaA of Staphylococcus nepalensis strain CNDG]
apoptosis of epithelial cells in the lungs (TGFβ1 TG mice): enhanced
collagen deposition in the lungs (TGFβ1 TG mice): increased
concentration of inflammatory cytokines and chemokines in the lungs (TGFβ1 TG mice): increased
infiltration of macrophages, lymphocytes and neutrophils in the lungs (TGFβ1 TG mice): significantly increased
apoptosis of normal human bronchial epithelial cells [1]: significantly enhanced apoptosis
apoptotic activity on vascular endothelial cell [3]: no apoptotic activity
Akt activation [4]: decreased
cleavage of caspase-3 [4]: increased
apoptotic property by transmission electron micrographs [5]: confirmed the apoptotic property
pro-apoptotic activity after heating ([2]; 5 μM, incubated at 85° C. for 15 min before adding to A549 cells for 48 h): heat-resistant
apoptosis of alveolar epithelial cells [2]: induces apoptosis of alveolar epithelial cells
apoptotic activity compared with equal protein concentrations of supernatant ([2]; corisin 5 or 10 μg/ml vs supernatant protein 10 or 100 μg/ml, 48 h): significantly more potent
pro-apoptotic effect on A549 cells ([2]; increasing concentrations of synthetic corisin, 48 h, DMEM): recapitulated the pro-apoptotic effect of the staphylococcal isolate supernatant in a dose dependent manner
apoptotic activity on lymphocyte cell line (human Jurkat T cells): no apoptotic activity
apoptotic activity on lung fibroblast (HFL1 lung fibroblasts): no apoptotic activity

IIARESNGQLHARNASGAA (listed as Staphylococcus epidermidis) [reference compound]
apoptosis of alveolar epithelial cells [2]: no pro-apoptotic effect

IVMPESGGNPNAVNPAGYR (listed as Staphylococcus warneri) [1 amino acid change from Staphylococcus nepalensis derivative]
apoptosis of A549 alveolar epithelial cells ([2]; 5 μM peptide, 48 h): induces apoptosis
